From patent US12697477B2, “Device for delivery of antimicrobial agent into a medical device” (ICU Medical, Inc., priority 2011, dated 2026)

Tests used:
Format in all cases: cell-based
[1] = tested on: infection-causing organisms; assay: Laboratory testing of the coated elongate member in standard hemodialysis catheters; conditions: 250 μg on the elongate member; catheters containing saline, heparin-saline, or saline with 4% sodium citrate
Description: The safety profile of the invention can be enhanced by limiting the amount of chlorhexidine acetate available to enter the bloodstream, the preferred maximum amount of chlorhexidine acetate on the elongate member is 2000 μg, more preferred is 1000 μg, and most preferred is 350 μg.

[2] = tested on: Candida albicans; assay: Coated cap luer against Candida albicans seeded within the catheter's luer region; conditions: 50 μg coated on the cap's luer portion
Description: For instance, if using a chlorhexidine based antimicrobial, approximately 50 μg of chlorhexidine acetate can be effective in some embodiments. […] The caps containing the coated luers killed all of the Candida albicans that were seeded within the catheter's luer region. Within the same experiment, the Candida albicans remained viable when uncoated caps were used. Greater than 5 μg chlorhexidine acetate on the luer region is effective; 10 μg to 300 μg is preferred, and 30 μg to 80 μg is most preferred.

[3] = tested on: Candida albicans, Pseudomonas aeruginosa, Staphylococcus aureus, and Escherichia coli; assay: Laboratory testing of elongate members in catheters under a variety of lock solutions and challenge organisms; conditions: lock solutions saline, heparinized-saline, 4% sodium citrate solution, human serum
Description: The minimum amount of antimicrobial agent on elongate member 33 was determined through laboratory testing in which elongate members were placed into catheters under a variety of lock solutions and challenge organisms. The type of lock solution was varied among saline, heparinized-saline, 4% sodium citrate solution, and human serum. A variety of challenge organisms were used, such as Candida albicans, Pseudomonas aeruginosa, Staphylococcus aureus, and Escherichia coli.

In the case of CC(=O)O.CC(=O)O.NC(=N\CCCCCC/N=C(N)/N=C(\N)Nc1ccc(Cl)cc1)/N=C(\N)Nc1ccc(Cl)cc1 [chlorhexidine acetate], the “reduction in number of infection-causing organisms” value [1] is reported as > 10,000 ×, the “kill of Candida albicans seeded within the catheter's luer region” value [2] is reported as “killed all” and the “organisms killed in the catheter versus amount on the elongate member” value [3] is reported as “dose response”.
